Assay results from patent US20110224297A1, “Methods of administering prostratin and structural analogs thereof” (priority 2008, published 2011).
Where two headings read alike, the source gives them in different places.

Columns and labels:
[1] = Stability of prostratin in mouse plasma; assay type: in vitro ADME; conditions: 24 hr incubation at 37° C.
Experimental: Prostratin is stable in plasma and buffer as well as in the stability formulation (see below) developed for in vivo studies in mice. Stability tests for prostratin in mouse and monkey plasma were done using two concentration (1 and 10 mg/ml) and two temperatures (Room Temperature (RT) and 37° C.). The only loss of drug occurred in mouse plasma after 24 hr incubation at 37° C. This represented only 14% decrease in parent drug peak area over this time frame. Prostratin is stable in PBS (phosphate buffer saline) at pH 2 and pH 7.

[2] = In vitro metabolism in mouse liver microsomes; assay type: in vitro ADME
Excerpt: (§1) In vitro metabolism of prostratin was investigated using mouse, rat, monkey, and human liver microsomes (Gentest). […] Attempts to identify the metabolite by LC/MS/MS were unsuccessful due to the low amounts present in the reaction mixtures (FIG. 1).

[3] = In vitro metabolism in monkey liver microsomes; assay type: in vitro ADME
Excerpt: as §1

[4] = In vitro metabolism in human liver microsomes; assay type: in vitro ADME
Excerpt: as §1

[5] = system: resting CD4+ T cells derived from HIV positive patients; assay: Induction of HIV-1 expression in resting CD4+ T cells from HIV positive patients on HAART (p24, co-culture); assay type: cell-based, human
Experimental: The ability of prostratin to induce HIV-1 expression in cultures of highly purified resting CD4+ T cells derived from six HIV positive patients on HAART therapy with undetectable plasma viral load (<50 copies/ml) and CD4 cell counts above 350 cells/mm^3 was evaluated. PBMCs were separated using Ficol Hypaque gradient and resting CD4+ T cells were purified using commercially available CD4+ T cell isolation kit (Miltenyi Biotec) Immediately after purification, resting CD4+ T cells were treated for 3 days with two antiretrovirals to which the patient had not previously been exposed. Antiretrovirals were used at concentrations 10 times the 50% inhibitory concentration for wild-type HIV-1 to ensure elimination of any actively replicating virus. Three days after in vitro incubation with antiretrovirals, cells were washed and incubated for 5 h, 24 h, or 48 h with prostratin (50-500 ng/ml), in the absence or presence of 1 mM valproic acid (sodium salt, SIGMA), 10 μg/ml PHA (SIGMA), 50 U IL-2/ml (AIDS depository of reagents, NIH), or in the absence of drugs. At the end of each incubation period, cells were co-cultured with CD8-depleted PBMCs from healthy donors. P24 was measured at days 0, 4, 7, 14, 21, 28, 35 and 42 days.

[6] = system: Escherichia coli tester strain WP2uvrA; assay: Escherichia coli/mammalian-microsome reverse mutation assay with confirmatory assay; assay type: cell-based; conditions: 100 to 5000 μg per plate; presence or absence of S9
Excerpt: The objective of this study was to evaluate the test article, prostratin, for the ability to induce reverse mutations either in the presence or absence of mammalian microsomal enzymes at 1) the histidine locus in the genome of several strains of Salmonella typhimurium and at 2) the tryptophan locus of Escherichia coli tester strain WP2uvrA.
The doses tested in the mutagenicity assay were selected based on the results of a dose range finding study using tester strains TA100 and WP2uvrA and ten doses of test article ranging from 6.67 to 5000 μg per plate, one plate per dose, both in the presence and absence of S9 mix.
The tester strains used in the mutagenicity assay were Salmonella typhimurium tester strains TA98, TA100, TA1535, and TA1537 and Escherichia coli tester strain WP2uvrA. The assay was conducted with five doses of test article in both the presence and absence of S9 mix along with concurrent vehicle and positive controls using three plates per dose. The doses tested were 100, 333, 1000, 3330, and 5000 μg per plate in both the presence and absence of S9 mix. The results of the initial mutagenicity assay were confirmed in an independent experiment.

[7] = Pharmacokinetic studies in mice; assay type: in vivo, CD2F1 mice
Experimental: Studies were conducted in CD2F1 mice using both the i.p. route (1.9 mg/kg) and the i.v. route (0.76 mg/kg). The vehicle was 10% DMSO: 10% Cremophor: 80%:0.9% saline for both routes. Doses used were preciously determined as maximally tolerated. Drug was detected out to 4 hr but was only quantifiable out to 3 hr post drug administration (see FIG. 5A, B). Data are presented as mean±SD where n=5. Data that were detected beyond 3 hr post drug administration are shown as “BLQ” (below the limit of quantification of the validated assay). Data were fit using 1 and 2 compartment pharmacokinetic models using ADAPT II computer program. In general the 2-compartment model provided a better fit for the data than did a 1-compartment model (Table 2). […] For the two-compartment model the situation was reversed (i.e. more variance for the model predicted PK parameters with lower residual values for the individual plasma concentration data).

[8] = Single-dose range-finding study in rats; assay type: in vivo, Fisher rats; conditions: male, Fisher, rat, in vivo, intravenous; rats, single bolus dose; read-out: Maximum Tolerated Dose (MTD)
Experimental: (§2) A single bolus dose of prostratin (0, 0.05, 0.1, 0.2, 0.4, and 0.8 mg/kg which correspond to 0, 0.3, 0.6, 1.2, 2.4, and 4.8 mg/m^2) was administered to Fisher rats (3 males/group) to determine the maximally tolerated dose and relative drug toxicity. […] Clinical signs of toxicity included decreased activity, prostration, tremors, and altered respiratory rate (decreased in some cases, increased in others). […] In the 0.4 mg/kg dose group, ALT and AST serum levels were 2- and 3-fold higher, respectively, than group mean ALT and AST values for control rats, and potassium level was decreased in 61% of the value obtained for control group animals. […] The Maximum Tolerated Dose (MTD) in rats is between 0.2-0.4 mg/kg dose of prostratin.

Fisher rats = assay: Single-dose range-finding study in rats; assay type: in vivo; conditions: for mortality (died on Day 1 or Day 2): male Fisher rats
Experimental: as §2

[9] = mice, IP (1.9 mg/kg), 2-compartment model
[10] = mice, IV (0.76 mg/kg), 2-compartment model
[11] = mice, i.p. 1.9 mg/kg and i.v. 0.76 mg/kg

SMILES: CC(=O)O[C@@]12C[C@@H](C)[C@@]3(O)[C@@H](C=C(CO)C[C@]4(O)C(=O)C(C)=C[C@@H]34)[C@@H]1C2(C)C [prostratin, 12-deoxyphorbol 13-acetate]
- decrease in parent drug peak area [1]: 14%
- metabolism (time-dependent loss of parent compound) [2]: greatest
- metabolism (time-dependent loss of parent compound) [3]: greatest
- metabolism (time-dependent loss of parent compound) [4]: substantially less
- HIV-1 expression in resting T cells ([5]; 50 ng/ml): HIV-1 activation events, although with lower frequency
- time of co-culture with CD8-depleted PBMC after which robust HIV replication was observed ([5]; 24 h with 150 ng/ml): 2-4 weeks
- HIV-1 expression in resting T cells ([5]; ex-vivo treatment for 24 h with 150 ng/ml): efficient activation of the latent reservoir
- mean number of revertants per plate [6]: did not cause a positive increase
- clearance ([7]; CD2F1, mouse, plasma, intraperitoneal and intravenous, mice, both the i.p and i.v. routes): 200 to 250 mL/min/kg
- half-life ([7]; CD2F1, mouse, plasma, ip, 1.9 mg/kg, mice, IP (1.9 mg/kg), 2-compartment model, read-out: T1/2 a (converted)): 20.4 min
- half-life ([7]; CD2F1, mouse, plasma, ip, 1.9 mg/kg, mice, IP (1.9 mg/kg), 2-compartment model, read-out: T1/2 b (converted)): 12600 min
- half-life ([7]; CD2F1, mouse, plasma, ip, 1.9 mg/kg, mice, IP (1.9 mg/kg), read-out: T1/2 [1-compartment model] (converted)): 20.4 min
- half-life ([7]; CD2F1, mouse, plasma, iv, 0.76 mg/kg, mice, IV (0.76 mg/kg), 2-compartment model, read-out: T1/2 a (converted)): 27.6 min
- half-life ([7]; CD2F1, mouse, plasma, iv, 0.76 mg/kg, mice, IV (0.76 mg/kg), 2-compartment model, read-out: T1/2 b (converted)): 1170 min
- half-life ([7]; CD2F1, mouse, plasma, iv, 0.76 mg/kg, mice, IV (0.76 mg/kg), read-out: T1/2 [1-compartment model] (converted)): 31.8 min
- CLt [7, 9]: 219.2 mL/min/kg
- Vc [7, 9]: 11.03 L/kg
- CLt [7, 10]: 252.7 mL/min/kg
- Vc [7, 10]: 17.32 L/kg
- time out to which drug was detected in plasma [7, 11]: 4 h
- time out to which drug was quantifiable in plasma [7, 11]: 3 h
- maximally tolerated dose ([7]; mice, i.p. route): 1.9 mg/kg
- maximally tolerated dose ([7]; mice, i.v. route): 0.76 mg/kg
- cumulative urinary excretion ([7]; pooled samples from five mice dosed i.p. (1.9 mg/kg), up to 24 hours): < 5 % of the administered dose
- MTD [8]: 0.2 to 0.4 mg/kg
- albumin (ALB) level relative to control (Fisher rats; 0.2 mg/kg dose group): 88%
- ALT serum level versus control (Fisher rats; 0.4 mg/kg dose group): 2 fold
- AST serum level versus control (Fisher rats; 0.4 mg/kg dose group): 3 fold
- albumin (ALB) level relative to control (Fisher rats; 0.4 mg/kg dose group): 76%
- potassium level relative to control (Fisher rats; 0.4 mg/kg dose group): 61%
- reversibility of adverse events (Fisher rats; PLT, ALT, AST, ALB within normal range by day 8): reversible
- increase in neutrophile counts (Fisher rats; day 3, 0.4 mg/kg dose group): 1.7 fold
- decrease in platelet (PLT) counts compared to control (Fisher rats; day 3, 0.4 and 0.2 mg/kg dose groups): 62-68%
- mortality (died on Day 1 or Day 2) (Fisher rats; single bolus 0.4 mg/kg): two of the three
- mortality (died on Day 1 or Day 2) (Fisher rats; single bolus 0.8 mg/kg): 3/3
